The results in this text go back to ChEMBL document CHEMBL1136940, “Design and implementation of an ribonucleic acid (RNA) directed fragment library” (J Med Chem, 2009).

The source made the active and inactive calls. No cut-off for these calls is given here. *1 amine or outer side, *2 acyl side, *3 side chain or, on linkers, in order; H or OH if unused. Where a SMILES comes first, the peptide text is derived from it. Bridges are numbered along the chain shown (N, C = ends). [ ]: non-standard residue; d: D form. The star is where a group is joined. X1 = NC1=N[C@@H]([C@H](N[*:1])C(=O)[*:2])C[C@H](O)N1; ΔAla(Z-3-ureido) = NC(=O)N/C=C(\N)C(=O)O; β3hOrn = NCCC[C@H](N)CC(=O)*; Dap = NC[C@H](N)C(=O)O

Common to all, as to type: nucleic-acid assay
The target in test [1] is Nucleic Acid. The test can be described thus: Binding affinity to A-site RNA.
Test [2] concerns the target Nucleic Acid. The test can be described thus: Binding affinity to RNA ribosome intersubuint bridge.
For test [3], the system named is Nucleic Acid. The test can be described thus: Displacement of gentamycin from Escherichia coli 16S ribosomal 27-nucleotide A-site RNA by water Logsy NMR spectroscopy based competitive displacement assay.
For test [4], the system named is Nucleic Acid. Description: Displacement of gentamycin from Escherichia coli 16S ribosomal 27-nucleotide A-site RNA by T2 filter NMR spectroscopy based competitive displacement assay.
Test [5] concerns Nucleic Acid. Description: Binding affinity to Escherichia coli 23S rRNA L11 binding domain.
Test [6] deals with Nucleic Acid. Description: Displacement of gentamycin from RNA bulge site of Escherichia coli 16S ribosomal 27-nucleotide A-site RNA by water Logsy NMR spectroscopy based noncompetitive binding assay.
The test system of test [7] is Nucleic Acid. The test can be described thus: Displacement of gentamycin from RNA bulge site of Escherichia coli 16S ribosomal 27-nucleotide A-site RNA by T2 filter NMR spectroscopy based competitive binding assay.
Test [8] relates to Nucleic Acid. The test can be described thus: Binding affinity to Escherichia coli 23S rRNA L11 binding domain in presence of protein.
For test [9], the target named is Nucleic Acid. Description: Binding affinity to RNAse P.
Test [10] deals with Nucleic Acid. The test can be described thus: Binding affinity to ribosome/exit tunnel RNA region.
In test [11] the target is Nucleic Acid. Description: Binding affinity to small bacterial subunit RNA.

With `NC[C@H]1O[C@H](O[C@H]2[C@H](O)[C@@H](O[C@H]3O[C@H](CO)[C@@H](O)[C@H](N)[C@H]3O)[C@H](N)C[C@@H]2N)[C@H](N)[C@@H](O)[C@@H]1O` [BEKANAMYCIN], in [1], binding was put at a Kd of 60 nM.
Take `NCCC[C@H](N)CC(=O)N[C@H]1CNC(=O)[C@H]([C@H]2C[C@H](O)NC(N)=N2)NC(=O)/C(=C/NC(N)=O)NC(=O)[C@H](CO)NC(=O)[C@H](CO)NC1=O` [VIOMYCIN] (β3hOrn-[Dap]SS[ΔAla(Z-3-ureido)][X1]; lactam 1-C): the Kd (commonly the equilibrium constant for the complex coming apart) in test [2] was under 3000 nM.
Compound `CN[C@@H]1[C@@H](O[C@H]2O[C@H](CO)[C@@H](N)[C@H](O)[C@H]2O)OC2C[C@@H](N)[C@@H](O[C@H]3[C@H](O)[C@@H](O)[C@H](N)C[C@@H]3N)OC2[C@@H]1O` (stereo partly drawn) [APRAMYCIN] registered an equilibrium dissociation constant (Kd) in test [1] of 60 nM.
On the same count and under the same terms, under `NC[C@@H]1O[C@@H](O[C@H]2[C@H](O)[C@@H](O[C@H]3O[C@H](CO)[C@@H](O)[C@H](N)[C@H]3O)[C@H](N)C[C@@H]2N)[C@@H](O)[C@H](O)[C@H]1O` [KANAMYCIN A] stands 100 nM.
Consider `N[C@@H]1C[C@H](N)[C@@H](O)[C@H](O)[C@H]1O`, for which the result in [3] and in [4] was Active.
In the case of `CN[C@@H]1[C@@H](O)[C@@H](O[C@@H]2[C@@H](O)[C@H](O[C@H]3O[C@H]([C@@H](C)O)[C@@H](O)[C@H](O)[C@H]3N)[C@@H](N)C[C@H]2N)OC[C@]1(C)O` [GENETICIN], the Kd in test [1] was under 100 nM.
Turning to `C=C(NC(=O)c1csc(-c2nc3c(cc2O)-c2nc(cs2)C(=O)NC(C(C)O)C(=O)N/C(=C\C)c2nc(cs2)C(=O)NC2CC(O)C(=O)OCc4cccc5[nH]c(c(C)c45)C(=O)SCC(NC(=O)c4csc2n4)c2nc-3cs2)n1)C(N)=O` (stereo not drawn) [NOSIHEPTIDE], the Kd in [5] is under 3000 nM.
For `c1ccc2nc3ccccc3cc2c1`, the outcome in test [6] and in [7] was Active.
As to `C=C(NC(=O)C(=C)NC(=O)c1csc(C2=N[C@@H]3c4csc(n4)[C@H]4NC(=O)c5csc(n5)[C@H]([C@](C)(O)[C@@H](C)O)NC(=O)[C@H]5CSC(=N5)/C(=C/C)NC(=O)[C@H]([C@@H](C)O)NC(=O)c5csc(n5)[C@]3(CC2)NC(=O)[C@H](C)NC(=O)C(=C)NC(=O)[C@H](C)NC(=O)[C@H]([C@@H](C)CC)N[C@@H]2C=Cc3c([C@H](C)O)cc(nc3[C@H]2O)C(=O)O[C@@H]4C)n1)C(N)=O` [THIOSTREPTON], the Kd in [5] is 1300 nM; in test [8], under 50 nM.
`NC(=O)Cc1ccccn1` [PYRIDINE ACETAMIDE] registered a Kd in [9] of 20000 nM.
As for `NCC[C@H](O)C(=O)N[C@@H]1C[C@H](N)[C@@H](O[C@H]2O[C@H](CN)[C@@H](O)[C@H](O)[C@H]2O)[C@H](O)[C@H]1O[C@H]1O[C@H](CO)[C@@H](O)[C@H](N)[C@H]1O` [AMIKACIN], in test [1], the Kd came to 50 nM.
Take `CC[C@H]1OC(=O)C[C@@H](O)[C@H](C)[C@@H](O[C@@H]2O[C@H](C)[C@@H](O[C@H]3C[C@@](C)(O)[C@@H](O)[C@H](C)O3)[C@H](N(C)C)[C@H]2O)[C@@H](CC=O)C[C@@H](C)C(=O)/C=C/C(C)=C/[C@@H]1CO[C@@H]1O[C@H](C)[C@@H](O)[C@@H](OC)[C@H]1OC` [TYLOSIN]: the equilibrium dissociation constant (Kd) in test [10] came out at 2.75 nM.
In [1], `NC[C@H]1O[C@H](O[C@H]2[C@H](O[C@@H]3O[C@H](CO)[C@@H](O)[C@H]3O)[C@@H](O)[C@H](N)C[C@@H]2N)[C@H](N)[C@@H](O)[C@@H]1O` [RIBOSTAMYCIN] yielded a dissociation constant (Kd) of 1700 nM.
`CN[C@@H]1[C@H](O[C@H]2[C@H](O[C@H]3[C@H](O)[C@@H](O)[C@H](N=C(N)N)[C@@H](O)[C@@H]3N=C(N)N)O[C@@H](C)[C@]2(O)C=O)O[C@@H](CO)[C@H](O)[C@H]1O` [STREPTOMYCIN] returned a dissociation constant (Kd) in [11] of under 12000 nM.
As to `NC[C@@H]1O[C@H](O[C@H]2[C@@H](O)[C@H](O[C@@H]3[C@@H](O)[C@H](N)C[C@H](N)[C@H]3O[C@H]3O[C@H](CO)[C@@H](O)[C@H](O)[C@H]3N)O[C@@H]2CO)[C@H](N)[C@@H](O)[C@@H]1O` [PAROMOMYCIN], the Kd in test [1] was under 12000 nM.
As to `Cc1cc(N(C)C)nc2cc(N)ccc12`, the outcome in [3] and in [4] was Active.
In test [1], `NC[C@@H]1O[C@H](O[C@H]2[C@@H](O)[C@H](O[C@@H]3[C@@H](O)[C@H](N)C[C@H](N)[C@H]3O[C@H]3O[C@H](CN)[C@@H](O)[C@H](O)[C@H]3N)O[C@@H]2CO)[C@H](N)[C@@H](O)[C@@H]1O` [FRAMYCETIN] had a Kd of 60 nM.
Consider `NC[C@@H]1O[C@H](O[C@H]2[C@@H](O)[C@H](O[C@@H]3[C@@H](O)[C@H](N)C[C@H](N)[C@H]3O[C@H]3O[C@H](CO)[C@@H](O)C[C@H]3N)O[C@@H]2CO)[C@H](N)[C@@H](O)[C@@H]1O[C@H]1O[C@H](CO)[C@@H](O)[C@H](O)[C@@H]1O` [LIVIDOMYCIN], for which the Kd in test [1] was 28 nM.
The compound `NC[C@H]1O[C@H](O[C@H]2[C@H](O)[C@@H](O[C@H]3O[C@H](CO)[C@@H](O)[C@H](N)[C@H]3O)[C@H](N)C[C@@H]2N)[C@H](N)C[C@@H]1O` [TOBRAMYCIN] showed a Kd in test [1] of 80 nM.
